Values quoted from earlier work as cited in patent publication US20230110485A1, “MULTI-LAYER PARTICLES OF FUNCTIONAL INGREDIENTS AND METHODS OF MAKING THE SAME” (Nulixir Inc., priority 2021, published 2023).

What was measured:
[1] = water and n-octanol; categorization at pH = 7 unless stated otherwise

Compound	logP [1]	inhibitory activity against fungi (many strains of fungi)
(-)-schisandrin C	~3.5	
COc1cc2c(c(OC)c1OC)-c1c(cc(OC)c(OC)c1OC)C[C@](C)(O)[C@@H](C)C2 [schisandrol A]	~3.4	
O=CC=Cc1ccccc1 [Cinnamaldehyde]		strong inhibitory activity
COc1cc(/C=C/c2ccccc2)oc(=O)c1 [5,6-dehydrokawain]	~2.9	
COc1cc2c(c(OC)c1OC)-c1c(cc3c(c1OC)OCO3)CC(C)C(C)C2 (single isomer, unassigned; (-)) [(-)-schisandrin B]	~4	
